# Source: US20130072505A1, “6,9-Disubstituted Purine Derivatives and Their Use for Treating Skin” (priority 2006, published 2013)
# Tests used:
# [1] = tested on: human skin fibroblasts; assay: short-term studies on cultured human skin fibroblasts (attachment, survival, growth, apoptosis); type: cell-based
# Protocol: Several short-term, preliminary studies of the effect of 6-furfurylamino-9-(2-tetrahydropyranyl)purine on cultured human skin fibroblasts cells have been carried out. The initial study involved the addition of 6-furfurylamino-9-(2-tetrahydropyranyl)purine (40 to 400 μM) to human skin fibroblasts cells in a culture. The percentage of attachment of the cells to the surface of the culture flask was not affected after 6 hours of treatment. In the remaining experiments reported in this example, the 6-furfurylamino-9-(2-tetrahydropyranyl)purine was added directly to the culture medium at the same time as the cells were seeded.
# A wider range of concentrations (from 0.01 to 500 μM) was tested for determining the effects of 6-furfurylamino-9-(2-tetrahydropyranyl)purine on the survival of cultured human skin fibroblasts after 3 days of treatment.
# The effect of 6-furfurylamino-9-(2-tetrahydropyranyl)purine (0 to 400 μM) treatment on short term growth of young human fibroblasts was also evaluated. Cell growth was similar in untreated samples and in samples treated with 40, 80, and 200 μM 6-furfurylamino-9-(2-tetrahydropyranyl)purine. […] Similar experiments were carried out to determine the extent of apoptosis and beta-galactosidase staining in 6-furfurylamino-9-(2-tetrahydropyranyl)purine-treated and untreated cells.
# Based on these studies, 6-furfurylamino-9-(2-tetrahydropyranyl)purine appears to be well tolerated by young and senescent human skin fibroblasts and to have positive effects in terms of reversion of actin pattern and morphology of senescent cells to relatively younger characteristics.
# [2] = tested on: Rat C6 glioma (ATCC No. CCL107); assay: anti-inflammatory activity: isoproterenol-induced intracellular cAMP synthesis; type: cell-based; details: cAMP after 30 min with (−)-isoproterenol
# Protocol: Anti-inflammatory activity of several of the 6,9-disubstituted purine derivatives of this invention was determined; kinetin was also evaluated as a control. Rat C6 glioma (ATCC No. CCL107) was cultivated in monolayer in serum-free chemically defined medium containing Ham's F10/minimal essential medium (1:1 v/v), 2 mM L-glutamine, 1% (v/v) minimal essential medium vitamins (100×), 1% (v/v) minimal essential medium nonessential amino acids (100×), 100 U/ml penicillin, […], and 30 nM sodium selenite. Incubation was performed at 37° C. in a humidified atmosphere. The assays were performed in the logaritmic growth phase at a density of 2.5×10^5 cells/cm^2. Intracellular cAMP synthesis was induced by addition of 5 mM (−)-isoproterenol; various amounts of test compounds were added at the same time as the (−)-isoproterenol. After 30 min incubation at 37° C., the medium was removed and the cellular amount of cAMP was determined using the cAMP-enzyme immunoassay kit from Amersham. The I50 value was determined from a dose-response curve in duplicate.
# [3] = tested on: chorioallantoic membrane of White Leghorn eggs; assay: Chorioallantoic Membrane Vascular Assay (ocular irritation)
# Protocol: The chorioallantoic membrane of White Leghorn eggs, incubated for 14 days, were dosed with 40 μl of the test compound (and three lower concentrations in distilled water) and then further incubated for about 30 minutes at which time the chorioallantoic membrane was examined for vascular hemorrhage, capillary injection, and/or the presence of ghost vessels.
# [4] = tested on: human subjects; assay: Human Repeated Insult Patch Test; type: in vivo; details: test gel about 0.1 percent
# Protocol: Test gel (about 0.2 ml) containing about 0.1 percent 6-furfurylamino-9-(2-tetrahydropyranyl)purine was placed onto a 2 cm square occlusion patch was placed on each subjects back and remained for 24 hours. This procedure was repeated every Monday, Wednesday, and Friday until nine (9) applications had been made on the same area (induction phase). The area was examined before each new application. About 10-14 days after the ninth patch had been removed, a challenge patch (challenge phase) on a new area of the back and then examined 24 and 72 hours thereafter for reactivity. Skin responses were based on a six-point scale (0=no evidence of effect; +=barely perceptible; 1=mild; 2=moderate; 3=marked; and 4=severe).
# Fifty-two (52) subjects completed the induction and challenge phases (total of 10 applications per subject).
# [5] = tested on: Female SKH-1 hairless mice; assay: topical skin anti-aging treatment, hairless mouse model; type: in vivo; details: 3 weeks
# Excerpt: The safety and efficacy of the 6,9-disubstituted purine derivatives of this invention as topical skin anti-aging treatments were examined using the hairless mouse model (a well established model for studying the treatments of photoaging). Female SKH-1 hairless mice (5 weeks old, 20-25 grams, Charles River Laboratories, Wilmington, Mass.) were individually housed in filter-top cages, and acclimated for 5-7 days after delivery. […] Water and mouse chow are provided ad libitum. The experimental groups (6 mice per group) included the following treatments: (1) Untreated control; (2) Vehicle control (MillCreek Lotion); […] The various treatments were applied daily (Monday-Friday) for 3 weeks to the dorsal skin (about 2 cm×2 cm) of the hairless mice at a dosage rate of about 20 mg. At baseline (prior to the 1st treatment), and weekly, the dorsal skin was measured for transepidermal water loss (TEWL), skin moisture content, and skin elasticity. […] This instrument was equipped with dual probes which are placed on the skin surface and a quantitative measurement taken of the respective parameters and the measurements recorded on an integrated computer. […] The slides were weakly counter stained in Mayer's hematoxylin and scored under a light microscope for the number of BrdU-positive cells per mm of epidermis for each section. […]
smiles,measurement,setting,value
c1coc(CNc2ncnc3c2ncn3C2CCCCO2)c1 (stereo not drawn) [6-furfurylamino-9-(2-tetrahydropyranyl)purine],toxicity or other negative effects on survival of cultured human skin fibroblasts,"[1]; 0.01 to 500 μM, 3 days of treatment",No toxicity or other negative effects were apparent
same,short term growth of young human fibroblasts vs untreated,"[1]; 40, 80, and 200 μM",similar
same,percentage of attachment of the cells to the surface of the culture flask,"[1]; 40 to 400 μM, after 6 hours of treatment",not affected
same,short term growth of young human fibroblasts,[1]; about 400 μM,slight decrease in growth of cells
same,cell growth and survival,"[1]; between 1 and 200 μM, 3 days of treatment",slight stimulation of cell growth and survival
same,apoptosis and beta-galactosidase staining (premature senescence),[1]; various doses (0 to 400 μM),no suggestion of induction of apoptosis or premature senescence
same,induction of additional growth or cell division,[1]; young and senescent human skin fibroblasts,No significant induction of additional growth or cell division
same,IC50,"[2]; Rattus norvegicus, C6 glioma, 0.5 h, read-out: Anti-inflammatory Activity I50",13 µM
same,Anti-inflammatory Activity Effect,[2],Inhibition
same,ocular irritation classification,[3],non-irritant
same,RC50 (calculated concentration producing a positive reaction in 50% of treated eggs),"[3]; about 30 minutes, <1% irritant, >3% non-irritant",105%
same,"skin responses, six-point scale (0=no evidence of effect; +=barely perceptible; 1=mild; 2=moderate; 3=marked; 4=severe)","[4]; challenge phase, at 24 hours, 52 subjects",only one subject had a barely perceptible rating (+)
same,induced allergic contact dermatitis or other irritation,[4]; induction and challenge phases,No evidence of induced allergic contact dermatitis or other irritation
same,erythema (irritation) score,"[5]; topical daily (Monday-Friday), Grade 0=no response to Grade 6=necrosis",< 1 Grade
same,Skin Moisture Content (skin conductance),[5]; topical daily,one of the highest increases in skin moisture
